From the supplement of paper PMC10307832

Experiments:
Test in all cases: relative viability (nuclei count vs DMSO), 5 days (fraction); higher = more cells survive
Cediranib + Palbociclib = compound: COc1cc2c(Oc3ccc4[nH]c(C)cc4c3F)ncnc2cc1OCCCN1CCCC1 [Cediranib] + CC(=O)c1c(C)c2cnc(Nc3ccc(N4CCNCC4)cn3)nc2n(C2CCCC2)c1=O [Palbociclib] (partner 0.5 µM)
Procedure, shortened: (§1)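 Relative viability was taken as the ratio of nuclei in treated wells to nuclei in vehicle wells. Lung cancer cell lines in 1536-well plates received compounds by pin tool one day after seeding, either one drug alone or a fixed anchor-drug dose plus five library-drug doses (not always all listed) in √10 steps. Nuclei were counted on 4× images after 5 days of treatment, and values are medians of duplicate plates.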

Cediranib + Luminespib = compound: COc1cc2c(Oc3ccc4[nH]c(C)cc4c3F)ncnc2cc1OCCCN1CCCC1 [Cediranib] + CCNC(=O)c1noc(-c2cc(C(C)C)c(O)cc2O)c1-c1ccc(CN2CCOCC2)cc1 [Luminespib] (partner 0.01 µM)
Procedure, shortened: as §1

Decitabine + Dasatinib = compound: Nc1ncn([C@H]2C[C@H](O)[C@@H](CO)O2)c(=O)n1 [Decitabine] + Cc1nc(Nc2ncc(C(=O)Nc3c(C)cccc3Cl)s2)cc(N2CCN(CCO)CC2)n1 [Dasatinib] (partner 0.075 µM)
Procedure, shortened: as §1

[1] = compound: O=C(C[C@H]1NCCC[C@@H]1O)Cn1cnc2cc(Br)c(Cl)cc2c1=O (racemic) [Halofuginone] + Nc1nc2[nH]cc(CCc3ccc(C(=O)N[C@@H](CCC(=O)O)C(=O)O)cc3)c2c(=O)[nH]1 [Pemetrexed] (partner 0.2 µM)
Procedure, shortened: as §1

| Cell Line | relative viability (Cediranib + Palbociclib; first compound 0.04 µM) | relative viability (Cediranib + Palbociclib; first compound 0.1265 µM) | relative viability (Cediranib + Palbociclib; first compound 0.4 µM) | relative viability (Cediranib + Palbociclib; first compound 1.265 µM) | relative viability (Cediranib + Palbociclib; first compound 4 µM) | relative viability (Cediranib + Luminespib; first compound 0.04 µM) | relative viability (Cediranib + Luminespib; first compound 0.1265 µM) | relative viability (Cediranib + Luminespib; first compound 0.4 µM) | relative viability (Cediranib + Luminespib; first compound 1.265 µM) | relative viability (Cediranib + Luminespib; first compound 4 µM) | relative viability (Decitabine + Dasatinib; first compound 0.04 µM) | relative viability (Decitabine + Dasatinib; first compound 0.1265 µM) | relative viability (Decitabine + Dasatinib; first compound 0.4 µM) | relative viability (Decitabine + Dasatinib; first compound 1.265 µM) | relative viability (Decitabine + Dasatinib; first compound 4 µM) | relative viability ([1]; first compound 0.001 µM) | relative viability ([1]; first compound 0.003162 µM) | relative viability ([1]; first compound 0.01 µM) | relative viability ([1]; first compound 0.03162 µM) | relative viability ([1]; first compound 0.1 µM) |
| --- | --- | --- | --- | --- | --- | --- | --- | --- | --- | --- | --- | --- | --- | --- | --- | --- | --- | --- | --- | --- |
| NCI-H1915 | 0.549 | 0.491 | 0.506 | 0.512 | 0.553 | 0.972 | 0.759 | 0.787 | 0.813 | 0.875 | 0.253 | 0.228 | 0.189 | 0.2 | 0.193 | 0.499 | 0.546 | 0.513 | 0.392 | 0.465 |
| NCI-H1944 | 0.331 | 0.386 | 0.315 | 0.346 | 0.313 | 0.767 | 0.796 | 0.741 | 0.72 | 0.963 | 0.201 | 0.242 | 0.177 | 0.2 | 0.211 | 0.611 | 0.62 | 0.579 | 0.586 | 0.496 |
| NCI-H1975 | 0.62 | 0.608 | 0.491 | 0.578 | 0.547 | 0.166 | 0.14 | 0.207 | 0.194 | 0.196 | 0.325 | 0.258 | 0.197 | 0.194 | 0.15 | 0.281 | 0.297 | 0.274 | 0.263 | 0.146 |
| NCI-H1993 |  | 0.634 | 0.64 | 0.656 | 0.637 | 0.637 | 0.901 | 0.906 | 0.851 | 0.597 | 0.542 | 0.57 | 0.608 | 0.484 | 0.55 | 0.664 | 0.577 | 0.564 | 0.652 | 0.508 |
| NCI-H2009 | 0.308 | 0.188 | 0.19 | 0.0997 | 0.211 | 1.09 | 0.97 | 0.995 | 1.12 | 1.05 | 0.264 | 0.273 | 0.252 | 0.204 | 0.185 | 1.04 | 0.999 | 0.999 | 0.977 | 0.548 |
| NCI-H2023 | 0.398 | 0.344 | 0.359 | 0.413 | 0.397 | 0.844 | 0.639 | 0.732 | 0.405 | 0.53 | 0.41 | 0.4 | 0.284 | 0.173 | 0.141 | 0.297 | 0.185 | 0.213 | 0.152 | 0.0841 |
| NCI-H2085 | 0.5 | 0.48 | 0.469 | 0.473 | 0.466 | 0.506 | 0.406 | 0.42 | 0.421 | 0.478 | 0.25 | 0.256 | 0.285 | 0.279 | 0.204 | 0.93 | 0.873 | 0.872 | 1.03 | 0.783 |
| NCI-H2087 | 0.243 | 0.24 | 0.249 | 0.182 | 0.224 | 0.194 | 0.191 | 0.191 | 0.136 | 0.144 | 0.523 | 0.452 | 0.358 | 0.246 | 0.23 | 0.673 | 0.657 | 0.686 | 0.709 | 0.489 |
| NCI-H2126 | 0.349 | 0.358 | 0.359 | 0.349 | 0.314 | 0.904 | 1.03 | 0.873 | 0.752 | 0.816 | 0.603 | 0.547 | 0.429 | 0.421 | 0.376 | 0.719 | 0.655 | 0.624 | 0.68 | 0.571 |
| NCI-H2170 | 0.438 |  | 0.371 | 0.372 | 0.381 | 0.654 | 0.704 | 0.666 | 0.547 | 0.848 | 0.528 | 0.502 | 0.461 | 0.269 | 0.228 | 0.271 | 0.202 | 0.273 | 0.25 | 0.275 |
| NCI-H2228 | 0.648 | 1.02 | 0.752 | 0.615 | 0.787 | 0.118 | 0.176 | 0.129 | 0.144 | 0.14 | 0.324 | 0.354 | 0.135 | 0.161 | 0.155 | 0.32 | 0.29 | 0.345 | 0.273 | 0.074 |
| NCI-H2342 | 0.562 | 0.52 | 0.451 | 0.534 | 0.479 | 0.858 | 0.801 | 0.919 | 0.704 | 0.82 | 0.329 | 0.365 | 0.308 | 0.295 | 0.303 | 0.801 | 0.702 | 0.774 | 0.76 | 0.727 |
| NCI-H2347 | 0.497 | 0.417 | 0.4 | 0.4 | 0.417 | 0.321 | 0.404 | 0.637 | 0.506 | 0.747 | 0.295 | 0.315 | 0.351 | 0.283 | 0.286 | 0.412 | 0.445 | 0.432 | 0.43 | 0.429 |
| NCI-H2405 | 0.532 | 0.574 | 0.516 | 0.546 | 0.514 | 0.897 | 0.712 | 0.649 | 0.657 | 0.532 | 0.209 | 0.194 | 0.286 | 0.204 | 0.203 | 1.14 | 1.07 | 0.978 | 0.989 | 0.638 |
| NCI-H3122 | 0.209 |  | 0.186 | 0.199 | 0.175 | 0.0861 | 0.09 | 0.0816 | 0.0839 | 0.12 | 0.665 | 0.833 | 0.233 | 0.321 | 0.459 | 0.207 | 0.191 | 0.205 | 0.189 | 0.198 |
| PC-3 [JPC-3] | 0.571 |  | 0.515 | 0.559 | 0.563 | 0.649 | 0.654 | 0.665 | 0.735 | 0.449 | 0.628 | 0.782 | 0.565 | 0.437 | 0.399 | 1.1 | 1.12 | 0.983 | 1.21 | 0.854 |
